In test [1] the test system is 3T3-L1 preadipocytes. As to the kind of experiment: Fatty acid composition of neutral and phospholipid fractions of treated cultures. Type of test: cell-based, murine.
In test [2] the test system is 3T3-L1 preadipocytes. As to the kind of experiment: TG content of 3T3-L1 preadipocytes. The class given is cell-based, murine.
For a further test, the system named is PPARγ2. As to the kind of experiment: PPARγ2 protein expression in 3T3-L1 preadipocytes. The class given is cell-based, murine.
Test [3] deals with 3T3-L1 adipocyte cell line. The test is described as follows: Lipolysis of triglycerides (glycerol release) in 3T3-L1 adipocyte cell line. The class given is cell-based, rodent.
Test [4] has as its system stromal vascular (SV) cells from human adipose tissue. The test is described as follows: De novo lipogenesis (14C-glucose incorporation into cellular lipid). The class given is cell-based. The conditions noted are these: Exp. 5a. Here is the method:
Experiments 5a and 5b were designed to determine if the trans-10, cis-12 CLA-mediated reduction in TG content was due to decreased lipogenesis and/or increased lipolysis. In Experiment 5a (lipogenesis), SV cells were seeded at a density of 3×10^4/cm^2 and continuously treated with increasing concentrations (3, 10, or 30 uM) of either linoleic acid, cis-9, tran-11 CLA, or trans-10, cis-12 CLA. A set of control cultures received vehicle (BSA) plus TZD. All cultures received differentiation media (days 1-3), adipocyte media (days 4-9), and low-glucose (˜5 mM) adipocyte media (days 10-12) prior to measuring de novo lipogenesis. On day 12, ^14C-labeled glucose incorporation into the lipid fraction of the cultures was measured for 2 h and, following lipid extraction, the radioactivity in the lipid fraction was determined by scintillation counting. Time course data (not shown) indicated a linear increase in radiolabeled glucose incorporation into lipid over 2 h.
Incorporation of ^14C-glucose into cellular lipid was determined on day 12 of differentiation in cultures chronically treated with fatty acids or vehicle. Following the addition of fatty acids and low glucose (˜5 mM) medium to the cultures on day 12, 1.0 μCi [U-^14C]-glucose ([U-^14C]-D-glucose; SA ˜250 mCi/mmol, ICN, Costa Mesa, Calif.)/mL medium was added to the cultures for 2 h. Our time course study (data not shown) indicated a linear increase in radiolabeled glucose incorporation into lipid over a 2 h period. After 2 h, media containing unincorporated ^14C-glucose was immediately removed and the cultures were washed with 1 mL HBSS to remove unincorporated ^14C-glucose. An additional 1 mL of HBSS was added and, after vigorous tritaration, cells were transferred to glass vials. Five milliliters of a chloroform:methanol (2:1) solution was added to each vial and they were vortexed for 1 min. All samples were then centrifuged for 5 min at 1000×g to further separate the hydrophobic and hydrophilic phases. The lower hydrophobic phase was removed from the tubes and dried under nitrogen at 40° C. Five milliliters of scintillation cocktail (Scinti Verse, Fisher Scientific, Norcross, Ga.) was added to each sample, and the ^14C content was determined by liquid scintillation counting on a Beckman LS 6000 Scintillation Counter (Beckman Instruments, Palo Atlo, Calif.). […] The radioactivity in the lipid fraction from these cultures was subtracted from the total counts. Cell numbers were determined from parallel treatment groups in separate culture dishes at the time of radioisotope addition to the medium. Therefore, mean ^14C-glucose incorporation is expressed as cpm/10^6 cells.

A further test deals with aP2. The test is described as follows: aP2 protein expression in 3T3-L1 preadipocytes. The class given is cell-based, murine.
Test [5] relates to stromal vascular (SV) cells from human adipose tissue. As to the kind of experiment: Triglyceride (TG) content of differentiating primary cultures of SV cells. The class given is cell-based. As to conditions: day 11. Here is the method: Abdominal adipose tissue (Exp. 1-5) and thigh adipose tissue (Exp. 5b) were obtained from middle-aged females with body mass indexes <30.0 during liposuction or elective surgery. Subsequently, tissue was minced and enzymatically digested for 45 min in a Krebs-Ringer buffer containing 1 mg/mL collagenase (CLS-1, Worthington Biochemical Corp, Lakewood, N.J.), 15 mg/mL bovine serum albumin (BSA), 5 mM glucose and 100 mM HEPES (pH 7.4). Digestion was carried out at a 5 mL/1 g ratio (digestion solution: tissue mass). The digesta was then filtered through 200- and 60-micron mesh and pelleted at 600×g for 5 min. The SV cells were resuspended in a RBC lysis buffer for 10 min and then filtered and recentrifuged to remove contaminating […]. Cultures of SV cells were grown in proliferation medium containing 90% DME/Ham's F-10 (1:1, v/v), 10% (v/v) fetal bovine serum (FBS), 15 mM HEPES (pH 7.4), 60 U/mL penicillin, 60 U/mL streptomycin, and 25 ug/mL fungizone. Cultures were incubated at 37° C. in a humidified […]:CO2 (90:10%) atmosphere. SV cells were grown to 80% confluency and then cryopreserved in liquid nitrogen in aliquots (2×10^6 cells/mL).
Cryopreserved aliquots were subsequently thawed, seeded in T-150 flasks (e.g., 1 vial per 2 T-150 flasks), and grown in proliferation media until 80% confluent. At this time the cells were removed via trypsinization, seeded (3×10^4/cm^2, except for Exp. 1) in 24-well or 96-well (Exp. 5b) Falcon dishes, and allowed to attach for 24 h in proliferation medium. Following attachment, cultures were grown in differentiation medium for the next 3 d which contained DME/Ham's F-10 (1:1,v/v), 15 mM HEPES (pH 7.4), 33 uM biotin, 17 uM pantothenate, 100 nM human insulin, 1 uM dexamethasone (DEX), 60 U/mL penicillin, 60 U/mL streptomycin, 25 ug/mL fungizone, 0.25 mM isobutylmethylxanthine (IBMX), and TZD (Exp. 1 & 2=BRL 49653; Exp. 3-5=Zen Bio's proprietary reagent). Thereafter, cultures were exposed to adipocyte medium consisting of 90% DME/Ham's F-10 (1:1,v/v), 15 mM HEPES (pH 7.4), 3% FBS (v/v), 33 uM biotin, 17 uM pantothenate, 100 nM human insulin, 1 uM DEX, 60 U/mL penicillin, 60 U/mL streptomycin, and 25 ug/mL fungizone. Adipocyte media was replaced every 3 d. […] After 18 day in culture, the majority of the cells contained visual lipid droplets.
Experiment 1 was designed to determine optimal culturing conditions during differentiation of primary cultures of SV cells isolated from human adipose tissue. Specifically, the experiment was designed to determine how seeding density and thiazolidinedione (TZD; PPARγ-agonist BRL 49653) concentration influenced TG content (ug/10^6cells). SV cells were seeded at increasing densities (2-, 3-, or 4×10^4/cm^2) in differentiation media containing 0, 1, or 10 uM TZD (BRL 49653) in this 3×3 factorial design. All cultures received the same adipocyte media after 3 d of differentiation. The cultures were harvested on day 11-12 of differentiation and TG content and cell number were measured. Another set of cultures was stained with Oil Red O and counterstained with Mayer's hematoxylin to assess cellular differentiation potential (n=3 per treatment combination).
In Experiment 2 the impact of linoleic acid and the trans-10, cis-12 isomer of CLA on TG accumulation in these cells was examined. SV cells were seeded at a density of 3×10^4/cm^2 and continuously treated with either 10 uM linoleic acid, 100 uM linoleic acid, 10 uM trans-10, cis-12 CLA, or 100 uM trans-10, cis-12 CLA, and grown under our normal differentiation protocol. One set of control cultures contained only vehicle (BSA) and another contained vehicle plus TZD (BRL 49653). TG content and cell number were measured on day 11 of differentiation.
The objective of Experiment 3 was to evaluate the dose response of trans-10, cis-12 CLA, cis-9, trans-11 CLA, and linoleic acid on TG content of the cultures. […]

In the case of `CCCCC/C=C\C=C\CCCCCCCCC(=O)O` [trans-10, cis-12 CLA, 10-trans, 12-cis conjugated linoleic acid], the “Amount of cis-9 oleic acid” value with 3T3-L1 preadipocytes [1] was “increased”. Moreover, the “Level of linoleic acid (18:2)” value in the test on 3T3-L1 preadipocytes [1] is given as “increased”. Besides, the “Amount of cis-11 oleic acid (18:1) compared to BSA controls” value with 3T3-L1 preadipocytes [1] (50 uM, neutral and polar lipid fractions) was “lower amounts”. In the test with 3T3-L1 preadipocytes [1] (50 uM, neutral lipid fraction), the “Amount of palmitoleic acid (16:1) compared to BSA controls” value is “lower amounts”. The “Arachidonic acid (AA) in the phospholipid fraction” value in the test on 3T3-L1 preadipocytes [1] (increasing level in culture) was “dose-dependent increase”. The “Incorporation into cellular lipid fractions” value in the test with 3T3-L1 preadipocytes [1] (neutral and phospholipid fractions) was “incorporated into the neutral and phospholipid fractions”. Besides, in the test with 3T3-L1 preadipocytes [2], the “TG content, treatment during only the first 3 d of differentiation” value is “not sufficient to lower TG concentrations”. Also, the “Triglyceride content in 3T3-L1 adipocyte cells” value with 3T3-L1 preadipocytes [2] (3T3-L1 adipocyte cell line) is “decreasing triglyceride content”. Besides, the TG-lowering effect result in the test with 3T3-L1 preadipocytes [2] (3T3-L1 preadipocytes) is reported as “responsible for the TG-lowering effects”. For the same compound, the “TG content, treatment during entire period of differentiation” value in the test with 3T3-L1 preadipocytes [2] (vs treatment during last 3 d) is “reduced TG content to a greater extent than treatment during the last 3 d of differentiation”. For the same compound, the values for the PPARγ2 protein expression result in the test with PPARγ2 (after 6 d of treatment) and with PPARγ2 (day 4 of differentiation) were “decreased” and “no effect on PPARγ2 protein expression”, respectively. For the same compound, in the test on PPARγ2 (day 2 of differentiation), the “PPARγ2 protein expression compared to BSA controls” value is reported as “increased PPARγ2 expression”. In addition, in test [3], the “Glycerol release by the cells” value is “increased glycerol release”. Besides, the “Less 14C-glucose incorporated into cellular lipid compared to TZD treated vehicle controls” value in test [4] (30 uM, day 12, 2 h) turned out to be 80%. The “Incorporation of 14C-glucose into cellular lipid per 10^6 cells, dose response” value in test [4] (3, 10, 30 uM, day 12) is on record as “decreased”. Further, the aP2 protein expression result with aP2 (after 6 d of treatment) is “decreased”; in the test on aP2 (day 2 or 4 of differentiation) it was “did not affect aP2 protein expression”. Further, in test [5] (Exp. 2, 10 uM, continuous treatment), the “Less TG (ug/10^6 cells) than TZD-supplemented vehicle control cultures” value stood at 76%. Moreover, in test [5] (Exp. 2, 100 uM, continuous treatment), the “TG content vs other treatments / TZD treated vehicle controls” value was “not significantly different”. In test [5] (Exp. 3, 30 uM), the “TG content vs TZD treated vehicle controls” value is “not significantly different”. Moreover, the “TG content, dose response” value in test [5] (Exp. 3, 1-10 uM) is “decreased”. The “Less TG content compared to TZD treated vehicle controls” value in test [5] (Exp. 4, 10 uM alone) was “approximately 60%”.
